Laboratory results: patent publication US6472348B1, “Pyridone derivatives and herbicides” (Kumiai Chemical Industry Co., Ltd., priority 1996, dated 2002)

Legend:
rice flatsedge (Ci) = assay: Test Example 2: herbicidal effects by upland field soil treatment; type: in vivo; settings: 100 g of the active ingredient per 10 ares, 21st day after the application, index 0-5 of Table 47;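 also: grade of growth control; 5 = at least 90%; 4 = 70 to 90%; 3 = 50 to 70%; 2 = 30 to 50%; 1 = 10 to 30%; 0 = under 10%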
From the text: (§1) (Test on Herbicidal Effects by Upland Field Soil Treatment)

[1] = tested on: common lambsquarters (Ch); assay: as above; type: in vivo; settings: 100 g of the active ingredient per 10 ares, 21st day after the application, index 0-5 of Table 47
From the text: as §1

pale smartweed (Po) [2] = assay: as above; type: in vivo; settings: 100 g of the active ingredient per 10 ares, 21st day after the application, index 0-5 of Table 47
From the text: as §1

slender amaranth (Am) [3] = assay: as above; type: in vivo; settings: 100 g of the active ingredient per 10 ares, 21st day after the application, index 0-5 of Table 47
From the text: as §1

barnyardgrass (Ec) = assay: as above; type: in vivo; settings: 100 g of the active ingredient per 10 ares, 21st day after the application, index 0-5 of Table 47;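 also: grade of growth control; 5 = at least 90%; 4 = 70 to 90%; 3 = 50 to 70%; 2 = 30 to 50%; 1 = 10 to 30%; 0 = under 10%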
From the text: as §1

Digitaria ciliaris (Di) = assay: as above; type: in vivo; settings: 100 g of the active ingredient per 10 ares, 21st day after the application, index 0-5 of Table 47;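 also: grade of growth control; 5 = at least 90%; 4 = 70 to 90%; 3 = 50 to 70%; 2 = 30 to 50%; 1 = 10 to 30%; 0 = under 10%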
From the text: as §1

soybean (Gl) = assay: Test Example 10: crop plant selectivity by upland field foliage treatment (soybean), phytotoxicity; settings: dose 1.6 g ai/10a, 14th day after treatment
Protocol: (§2) (Test on Crop Plant Selectivity by Upland Field Foliage Treatment)
(§3) In a plastic pot (surface area: 600 cm^2) filled with sand, soybean (Gl), pale smartweed (Po), slender amaranth (Am), common lambsquarters (Ch) and China jute (Ab) were sown and cultured in a green house for 2 weeks. […] The plants were then cultured in a green house, and the evaluation of the herbicidal effects and phytotoxicity was conducted on the 14th day after the treatment in accordance with the standards as identified in Table 47.

[4] = tested on: common lambsquarters (Ch); assay: Test Example 9: crop plant selectivity by upland field foliage treatment (wheat), herbicidal effects; type: in vivo; set-up: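 grade of growth control; 5 = at least 90%; 4 = 70 to 90%; 3 = 50 to 70%; 2 = 30 to 50%; 1 = 10 to 30%; 0 = under 10%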; settings: dose 1.6 g ai/10a, 14th day after treatment
Method in brief: (§4)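 Wheat and weeds sown in sand-filled pots, grown 2 weeks in a greenhouse, then foliage-treated. Herbicidal effect and crop phytotoxicity were scored 14 days after treatment against a rating scale.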

China jute (Ab) [5] = assay: as above; type: in vivo; set-up: scale not given here; settings: dose 1.6 g ai/10a, 14th day after treatment
Method in brief: as §4

pale smartweed (Po) [6] = assay: as above; type: in vivo; set-up: scale not given here; settings: dose 1.6 g ai/10a, 14th day after treatment
Method in brief: as §4

slender amaranth (Am) [7] = assay: as above; type: in vivo; set-up: scale not given here; settings: dose 1.6 g ai/10a, 14th day after treatment
Method in brief: as §4

[8] = tested on: common lambsquarters (Ch); assay: Test Example 10: crop plant selectivity by upland field foliage treatment (soybean), herbicidal effects; type: in vivo; settings: dose 1.6 g ai/10a, 14th day after treatment
Protocol: as §2, §3

China jute (Ab) [9] = assay: as above; type: in vivo; settings: dose 1.6 g ai/10a, 14th day after treatment
Protocol: as §2, §3

pale smartweed (Po) [10] = assay: as above; type: in vivo; settings: dose 1.6 g ai/10a, 14th day after treatment
Protocol: as §2, §3

slender amaranth (Am) [11] = assay: as above; type: in vivo; settings: dose 1.6 g ai/10a, 14th day after treatment
Protocol: as §2, §3

[12] = tested on: common lambsquarters (Ch); assay: Test Example 11: crop plant selectivity by upland field foliage treatment (corn), herbicidal effects; type: in vivo; set-up: scale not given here; settings: upland field foliage treatment (corn test), dose 1.6 g ai/10a, 14th day after treatment
Method in brief: (§5)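 Corn with pale smartweed, slender amaranth, common lambsquarters and China jute sown in sand-filled pots and grown 2 weeks in a greenhouse before foliage treatment. Herbicidal effect and crop phytotoxicity scored on day 14 after treatment against a rating standard.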

China jute (Ab) [13] = assay: as above; type: in vivo; set-up: scale not given here; settings: upland field foliage treatment (corn test), dose 1.6 g ai/10a, 14th day after treatment
Method in brief: as §5

pale smartweed (Po) [14] = assay: as above; type: in vivo; set-up: scale not given here; settings: upland field foliage treatment (corn test), dose 1.6 g ai/10a, 14th day after treatment
Method in brief: as §5

slender amaranth (Am) [15] = assay: as above; type: in vivo; set-up: scale not given here; settings: upland field foliage treatment (corn test), dose 1.6 g ai/10a, 14th day after treatment
Method in brief: as §5

corn (Ze) = assay: Test Example 11: crop plant selectivity by upland field foliage treatment (corn), phytotoxicity; settings: upland field foliage treatment, dose 1.6 g ai/10a, 14th day after treatment
Method in brief: as §5

wheat (Tr) = assay: Test Example 9: crop plant selectivity by upland field foliage treatment (wheat), phytotoxicity; settings: dose 1.6 g ai/10a, 14th day after treatment;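 also: grade of crop injury; 5 = at least 90%; 4 = 70 to 90%; 3 = 50 to 70%; 2 = 30 to 50%; 1 = 10 to 30%; 0 = under 10%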
Method in brief: as §4

`C#CCSc1cc(-c2ccc(C(F)(F)F)n(C)c2=O)c(Cl)cc1Cl` [1-52] was tested, and the “Herbicidal effects Ci” value (rice flatsedge (Ci)) was 5, the “Herbicidal effects Ch” value [1] was 5 and the “Herbicidal effects Po” value (pale smartweed (Po) [2]) was 5. For the same molecule, the “Herbicidal effects Am” value (slender amaranth (Am) [3]) was 5, the “Herbicidal effects Ec” value (barnyardgrass (Ec)) was 5 and the “Herbicidal effects Di” value (Digitaria ciliaris (Di)) was 5. For the same molecule, the “Phytotoxicity Gl” value (soybean (Gl)) was 2, the “Herbicidal effects Ch” value [4] was 5 and the “Herbicidal effects Ab” value (China jute (Ab) [5]) was 5. The “Herbicidal effects Po” value (pale smartweed (Po) [6]) was 5, the “Herbicidal effects Am” value (slender amaranth (Am) [7]) was 5 and the “Herbicidal effects Ch” value [8] was 5. For the same molecule, the “Herbicidal effects Ab” value (China jute (Ab) [9]) was 5, the “Herbicidal effects Po” value (pale smartweed (Po) [10]) was 5 and the “Herbicidal effects Am” value (slender amaranth (Am) [11]) was 5. The “Herbicidal effects Ch” value [12] was 5, the “Herbicidal effects Ab” value (China jute (Ab) [13]) was 5 and the “Herbicidal effects Po” value (pale smartweed (Po) [14]) was 5. The “Herbicidal effects Am” value (slender amaranth (Am) [15]) was 5, the “Phytotoxicity Ze” value (corn (Ze)) was 2 and the “Phytotoxicity Tr” value (wheat (Tr)) was 1.
